Reference: patent US20220073470A1, “INHIBITORS OF CGAS ACTIVITY AS THERAPEUTIC AGENTS” (BELLBROOK LABS, LLC, priority 2019, published 2022)
In brackets after ≈: the same amount, converted by molar mass. Like-named read-outs stand apart in the source and are kept apart here.

Experiments:
[1] = Solubility Ksol in PBS pH 7.4; type: physicochemical; settings: pH 7.4, aqueous buffer, kinetic from dmso stock
cGAS = cGAS (Homo sapiens, UniProt Q8N884); assay: SPR binding to cGAS; settings: enzymatic analysis and biophysical binding studies (SPR, TSA)
Chain of cGAS (Q8N884 whole entry): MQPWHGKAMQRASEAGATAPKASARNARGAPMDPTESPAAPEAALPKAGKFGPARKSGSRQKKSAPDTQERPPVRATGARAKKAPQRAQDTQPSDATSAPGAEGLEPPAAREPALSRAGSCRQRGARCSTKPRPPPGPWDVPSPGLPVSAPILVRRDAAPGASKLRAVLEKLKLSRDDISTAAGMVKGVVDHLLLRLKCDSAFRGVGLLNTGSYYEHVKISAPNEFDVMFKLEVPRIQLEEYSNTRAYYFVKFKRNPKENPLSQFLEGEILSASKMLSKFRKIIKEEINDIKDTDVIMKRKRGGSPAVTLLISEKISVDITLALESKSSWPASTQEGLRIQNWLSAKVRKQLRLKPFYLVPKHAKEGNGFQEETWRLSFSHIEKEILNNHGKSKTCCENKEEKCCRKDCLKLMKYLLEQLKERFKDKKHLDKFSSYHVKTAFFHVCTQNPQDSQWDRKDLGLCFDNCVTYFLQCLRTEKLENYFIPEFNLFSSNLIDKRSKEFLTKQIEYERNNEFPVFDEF
Description: Following confirmation of hits at three concentrations and removal of compounds with visually evident reactivity or metabolic liabilities, non-stoichiometric inhibitors, aggregators, DNA intercalators and redox-active compounds were triaged using established assays. Initial SAR based on more than 100 commercially available analogs provided additional confidence that the compounds of the disclosure were bonafide inhibitors, and informed potential scaffold hops and toleration for modifications. The compounds of formula (I) of the disclosure were selected for advancement into a hit-to-lead study. […] The compounds of formula (I) of the disclosure are competitive with GTP and its potency is enhanced in the presence of Mn^2+.
Potency and MOA studies, including Mn^2+ sensitivity, are performed using the cGAS enzymatic assay. Dose response experiments are used to determine IC50 values under basal conditions (5 mM MgCl2, 100 μM ATP/GTP), and with the addition of physiological levels of Mn (0.2 mM) using human and mouse cGAS. Ligand optimization is driven by potency with the human enzyme; potency with mouse cGAS informs selection of an appropriate disease model for efficacy studies. Competition with ATP and GTP is assessed by comparing basal IC50 values to those in the presence of saturating ATP or GTP, and subsequently confirmed by measuring velocity vs. substrate at varying ATP or GTP levels. […]

[2] = Human microsomal stability (NADPH); type: in vitro ADME; settings: liver microsomes, read-out: Human MS Stability (NADPH) t1/2
Protocol: (§1) Compounds are tested in Caco-2 and MDR1-MDCK permeability assays to provide a measure of intestinal absorption, blood-brain-permeability and efflux by P-glycoprotein (P-gp), a frequent obstacle to effective CNS delivery. CNS drugs are associated with high passive membrane permeability (Papp>1×10^−6 cm/sec) and have low efflux ratios (Papp(B−A)/Papp(A−B)<2.5). Metabolic stability is tested using mouse and human liver microsomes incubated with NADPH for CYP-dependent metabolism and with UDPGA for glucuronidation. Compounds are tested for pharmacokinetics and brain penetration in mice using oral, intravenous and intraperitoneal administration.

full-length human cGAS = molecular target: T1, full-length human cGAS (Homo sapiens, UniProt Q8N884); assay: cGAS enzymatic assay (FP readout), inhibition of cGAS; type: biochemical
T1 construct: The cGAS assay was used to screen 100,000 compounds with full-length human cGAS; 6xHis; made in house
T1 sequence (Q8N884 whole entry): as above
Protocol: Some exemplary compounds of the disclosure were tested for inhibition of cGAS (30 nM). The results are provided in Table 1 where “A” indicates an IC50 of less than 100 nM, “B” indicates an IC50 of greater than 100 nM and less than 500 nM, “C” indicates an IC50 of greater than 500 nM and less than 1 μM, “D” indicates an IC50 of greater than 1 μM and less than 10 μM, and “E” indicates an IC50 of greater than 10 μM.
A homogenous cGAS enzymatic assay was developed with fluorescence polarization (FP) and time-resolved Forster resonance energy transfer (TR-FRET) readouts (FIG. 2A-D). The cGAS assay was used to screen 100,000 compounds with full-length human cGAS (FIG. 2E), resulting in the identification of novel chemotypes, two of which are further developed in a structure-driven hit-to-lead study (Table 3, below). The assay performance was robust, as indicated by respective Z and Z′ values of 0.59 and 0.63 in the screen; compounds with polarization values greater than three SDs from the mean were considered hits; a scatterplot from 10 plates (3,200 compounds) is shown in FIG. 2D.
(§2) Potency and MOA studies, including Mn^2+ sensitivity, are performed using the cGAS enzymatic assay. Dose response experiments are used to determine IC50 values under basal conditions (5 mM MgCl2, 100 μM ATP/GTP), and with the addition of physiological levels of Mn (0.2 mM) using human and mouse cGAS. Ligand optimization is driven by potency with the human enzyme; potency with mouse cGAS informs selection of an appropriate disease model for efficacy studies. Competition with ATP and GTP is assessed by comparing basal IC50 values to those in the presence of saturating ATP or GTP, and subsequently confirmed by measuring velocity vs. substrate at varying ATP or GTP levels. Inhibitor residence times (1/koff) are used as a key parameter for prioritizing compounds and driving SAR, because a longer residence time often results from an allosteric mechanism, and can also correlate with improved cellular activity. The cGAS enzymatic assay is used with the jump dilution method to measure residence times (inhibitor dissociation rates), as described for kinases using the very similar ADP assay. Biophysical methods, including SPR and TSAn, are used as orthologous methods for residence time measurements and kd estimates.

[3] = test system: IRF3-driven transcription; assay: IRF3-Luc reporter, THP1 dual-cell reporter system; type: cell-based; settings: Homo sapiens, THP-1; read-out: Cellular IRF3-Luc
Description: (§3) FIG. 4 includes a schematic showing the THP1 dual-cell reporter system: secreted luciferase reports on IRF3-driven transcription; secreted alkaline phosphatase reports on NFκB-driven transcription, both downstream of cGAS/STING.

[4] = test system: NFκB-driven transcription; assay: NFκB-SEAP reporter, THP1 dual-cell reporter system; type: cell-based; settings: Homo sapiens, THP-1; read-out: Cellular NFκB-SEAP
Description: as §3

Mouse cGAS = Mouse cGAS (Mus musculus, UniProt Q8C6L5); assay: cGAS enzymatic assay with mouse cGAS; type: biochemical
Chain of Mouse cGAS (Q8C6L5 whole entry): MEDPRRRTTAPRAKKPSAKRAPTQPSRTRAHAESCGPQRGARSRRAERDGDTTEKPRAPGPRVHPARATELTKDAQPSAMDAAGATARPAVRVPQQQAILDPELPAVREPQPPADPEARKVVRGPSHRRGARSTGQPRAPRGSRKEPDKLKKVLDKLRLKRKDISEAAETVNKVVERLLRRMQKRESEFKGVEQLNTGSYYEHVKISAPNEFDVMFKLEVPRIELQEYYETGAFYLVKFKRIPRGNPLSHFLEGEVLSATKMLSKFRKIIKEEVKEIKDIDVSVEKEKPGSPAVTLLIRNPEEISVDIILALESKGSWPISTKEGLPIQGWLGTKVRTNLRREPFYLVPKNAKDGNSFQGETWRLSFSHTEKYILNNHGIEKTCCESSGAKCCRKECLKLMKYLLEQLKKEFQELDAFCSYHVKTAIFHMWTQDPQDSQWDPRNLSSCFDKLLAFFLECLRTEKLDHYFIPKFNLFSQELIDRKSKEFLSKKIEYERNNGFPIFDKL
Protocol: as §2

P-glycoprotein (MDR1) = assay: MDCK-MDR permeability and efflux; type: in vitro ADME, Canine; settings: dog, MDCK-MDR1
Protocol: as §1

[5] = test system: Madin-Darby Canine Kidney cells-Multi Drug Resistance pump; assay: MDCK-MDR permeability and efflux; type: in vitro ADME
Protocol: as §1

ISG mRNA expression = ISG mRNA expression in THP1-dual cells; type: cell-based
Protocol: (§4) FIG. 5A illustrates activity of IFNβ expression of compound 14 in three different experiments. FIG. 5B illustrates the ISG mRNA expression of compound 14 in THP1-dual cells. Compound 14 in concentration of 200 μM was evaluated after 24 hours.
(§5) Cellular activity of several compounds of formula (I) was assessed in […]. For example, FIG. 5A illustrates activity of IFNβ expression, and FIG. 5B illustrates the ISG mRNA expression of compound 14 in THP1-dual cells.

[6] = test system: DNA-stimulated IFNβ expression; assay: IFNβ ELISA, DNA-stimulated IFNβ expression; type: cell-based
Protocol: as §4, §5

[7] = Mouse microsomal stability (NADPH); type: in vitro ADME; settings: liver microsomes, read-out: Mouse MS Stability (NADPH) t1/2
Protocol: as §1

[8] = test system: kinases (Abl1, PKA, TBK1), GTPase (Rac1), phosphodiesterase (PDE4A), ENPP1; assay: Selectivity panel of nucleotide-utilizing enzymes; type: biochemical
Protocol: The compounds of formula (I) of the disclosure were tested for improved potency and other drug-like properties.
A panel of nucleotide-utilizing enzymes that included kinases (Abl1, PKA, TBK1—which transduces cGAS/STING signals, see FIG. 4) a GTPase (Rac1), a phosphodiesterase (PDE4A), and ENPP1, a nucleotidase that degrades cGAMP, was used preliminarily. cGAS assays were used to perform dose response measurements with cGAS inhibitors. In addition to these enzymes, inhibitors are tested with three other members of the oligoadenylate synthases (OAS), nucleic acid sensors that activate innate immunity via production of short, 2′-5′ oligoadenylate second messengers. Methods for expression and purification of the human and/or porcine enzymes in E. coli or baculovirus-infected insect cells have been developed as well as a simple, absorbance-based assay using commercially available pyrophosphate kit. In addition, an FP-based assay (competitive displacement of a fluor-cGAMP tracer) is developed to test compounds as ligands for STING.

solubility [1]: 224 µM (≈ 58.2 µg/mL)
Binding stoichiometry to cGAS (cGAS): Stoichiometric binding (1:1)
half-life [2]: 1.93 h
IC50 (full-length human cGAS; 100 μM ATP/GTP, read-out: Enzymatic FP Std (100 μM ATP/GTP)): 391 nM
IC50 (full-length human cGAS; 1 mM ATP/GTP, read-out: Enzymatic FP Physiological (1 mM ATP/GTP)): 1920 nM
IC50 (full-length human cGAS; 5 mM Mg2+, 0.2 mM Mn2+, read-out: IC50 (5 mM Mg^2+, 0.2 mM Mn^2+)): 48 ± 2 nM
IC50 (full-length human cGAS; 5 mM Mg2+, no Mn2+, read-out: IC50 (5 mM Mg^2+)): 550 ± 10 nM
IC50 (full-length human cGAS; cGAS (30 nM), no Mn2+, read-out: Inhibition cGAS (IC50 class)): 500 to 1000 nM
IC50 (full-length human cGAS; cGAS (30 nM), with Mn2+, read-out: Inhibition cGAS + Mn^2+ (IC50 class)): < 100 nM
MOA (full-length human cGAS; competition with substrates): GTP Competitive
IC50 [3]: 75000 nM
IC50 [4]: 59000 nM
IC50 (Mouse cGAS): 93 nM
efflux ratio (P-glycoprotein (MDR1)): 0.5
Papp A→B (P-glycoprotein (MDR1); A→B): 76.7 ×10⁻⁶ cm/s
MDR-1-mediated export [5]: no indication of MDR-1-mediated export
IC50 ([6]; read-out: Cellular IFNβ ELISA): 68000 nM
half-life [7]: 0.355 h
Off-Target Activity (Kinase, PDE, GTPase, ENPP1) [8]: None
Inhibitory activity with panel of nucleotide-utilizing enzymes ([8]; at 200 μM, kinases, a GTPase, a phosphodiesterase, a nucleotidase): lack of inhibitory activity
SMILES: COc1cc2c(-n3ccnc3)ccnc2cc1Cl [Compound 14, 7-chloro-4-(1H-imidazol-1-yl)-6-methoxyquinoline]
ISG expression (ISG mRNA expression): inhibition
ISG expression (fold decrease @ 200 μM) (ISG mRNA expression; 200 μM, THP1-dual cells, 24 hours): 2-10×
DNA-stimulated IFNβ expression as measured by ELISA [6]: specific inhibition
